Source: ChEMBL document CHEMBL1155215, “Green chemoselective synthesis of thiazolo[3,2-a]pyridine derivatives and evaluation of their antioxidant and cytotoxic activities” (Bioorg Med Chem Lett, 2009)

Tests used:
[1] = tested on: Radical scavenging activity; assay: Antioxidant activity assessed as DPPH free radical scavenging activity at 1 mg assessed per mg; assay type: functional
[2] = tested on: HCT-116; assay: Cytotoxicity against human HCT116 cells assessed as inhibition of cell proliferation at 1 mg/ml after 48 hrs by MTT assay; assay type: functional; settings: HCT-116, 48 h
[3] = Cytotoxicity against C57BL/6 mouse spleen lymphocytes assessed as inhibition of cell proliferation at 1 mg/ml after 48 hrs by MTT assay; assay type: tissue-based, Lymphocyte
[4] = Antioxidant activity assessed as hydroxyl free radical scavenging activity at 1 mg assessed per mg; assay type: functional

| SMILES | inhibition [1] [%] | inhibition at 1000 µg/mL [2] [%] | inhibition at 48 h, 1 mg/ml [3] [%] | inhibition [4] [%] |
| --- | --- | --- | --- | --- |
| COc1ccc(C2C(C#N)=C(N)N3C(=O)CSC3=C2C#N)cc1 (centres undefined) | 140 | 50.2 | 70.6 | – |
| N#CC1=C(N)n2c(s/c(=C\c3cccs3)c2=O)=C(C#N)C1c1cccs1 (centres undefined) | – | 63.8 | 55.4 | – |
| N#CC1=C(N)N2C(=O)CSC2=C(C#N)C1c1ccc(Br)cc1 (centres undefined) | 67.7 | 43.5 | 69.6 | – |
| N#CC1=C(N)n2c(s/c(=C\c3ccc(O)c([N+](=O)[O-])c3)c2=O)=C(C#N)C1c1ccc(O)c([N+](=O)[O-])c1 (centres undefined) | 109 | 41.2 | 5.31 | – |
| N#CC1=C(N)n2c(s/c(=C\c3ccc(Br)cc3)c2=O)=C(C#N)C1c1ccc(Br)cc1 (centres undefined) | 108 | 56.6 | 71.3 | 125 |
| Cc1ccc(C2C(C#N)=C(N)N3C(=O)CSC3=C2C#N)cc1 (centres undefined) | – | 47.4 | 63.8 | – |
| N#CC1=C(N)N2C(=O)CSC2=C(C#N)C1c1ccc(F)cc1 (centres undefined) | – | 47.8 | 66.9 | – |
| N#CC1=C(N)n2c(s/c(=C\c3cccc([N+](=O)[O-])c3)c2=O)=C(C#N)C1c1cccc([N+](=O)[O-])c1 (centres undefined) | 45.9 | 53 | 60.4 | 56.8 |
| N#CC1=C(N)N2C(=O)CSC2=C(C#N)C1c1ccc2c(c1)OCO2 (centres undefined) | – | 51.8 | 62 | – |
| N#CC1=C(N)n2c(s/c(=C\c3ccc([N+](=O)[O-])cc3)c2=O)=C(C#N)C1c1ccc([N+](=O)[O-])cc1 (centres undefined) | – | 35.5 | 51.7 | – |
| N#CC1=C(N)N2C(=O)CSC2=C(C#N)C1c1ccccc1 (centres undefined) | – | 50.8 | 64.8 | – |
| N#CC1=C(N)N2C(=O)CSC2=C(C#N)C1c1ccccc1Cl (centres undefined) | – | 54.1 | 60.4 | – |
| N#CC1=C(N)N2C(=O)CSC2=C(C#N)C1c1ccc(Cl)cc1Cl (centres undefined) | – | 29.9 | 55.4 | – |
| O=C1O[C@H]([C@@H](O)CO)C(O)=C1O | – | – | – | 109 |
